Assay results published in ChEMBL document CHEMBL3044973, “Substituted 9-aryl-1,8-acridinedione derivatives and their effects on potassium channels” (Med Chem Res, 2009).

How the values were obtained:
Settings in all cases: Aorta
[1] = biological target: T1, Potassium channel protein (Rattus norvegicus) (UniProt Q6I9B6); assay: Activation of potassium channel in Rattus norvegicus (rat) aortic rings assessed as inhibition of phenylepinephrine-induced contractile response in presence of calcium activated potassium channel inhibitor TEA
T1 sequence (whole entry): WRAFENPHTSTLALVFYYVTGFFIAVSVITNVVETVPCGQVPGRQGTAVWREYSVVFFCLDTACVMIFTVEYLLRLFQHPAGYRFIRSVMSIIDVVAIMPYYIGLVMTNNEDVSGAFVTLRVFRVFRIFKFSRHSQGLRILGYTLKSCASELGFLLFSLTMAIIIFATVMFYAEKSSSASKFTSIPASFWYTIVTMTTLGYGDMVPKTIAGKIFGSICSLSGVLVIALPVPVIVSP

[2] = biological target: T1, Potassium channel protein (Rattus norvegicus); assay: Activation of potassium channel in Rattus norvegicus (rat) aortic rings assessed as inhibition of phenylepinephrine-induced contractile response in presence of ATP-sensitive potassium channel inhibitor glibenclamide
[3] = biological target: T1, Potassium channel protein (Rattus norvegicus); assay: Activation of potassium channel in Rattus norvegicus (rat) aortic rings assessed as inhibition of phenylepinephrine-induced contractile response
[4] = biological target: T1, Potassium channel protein (Rattus norvegicus); assay: Activation of potassium channel in Rattus norvegicus (rat) aortic rings assessed as inhibition of phenylepinephrine-induced contractile response in presence of calcium activated potassium channel inhibitor TEA relative to control
[5] = biological target: T1, Potassium channel protein (Rattus norvegicus); assay: Activation of potassium channel in Rattus norvegicus (rat) aortic rings assessed as inhibition of phenylepinephrine-induced contractile response in presence of ATP-sensitive potassium channel inhibitor glibenclamide relative to control
[6] = biological target: T1, Potassium channel protein (Rattus norvegicus); assay: Activation of potassium channel in Rattus norvegicus (rat) aortic rings assessed as inhibition of phenylepinephrine-induced contractile response relative to control

| Structure (SMILES) | Activity [1] | Activity [2] | Activity [3] | pD2 [3] | Emax [4] | Emax [5] | Emax [6] |
| --- | --- | --- | --- | --- | --- | --- | --- |
| CC1CC(=O)C2=C(C1)NC1=C(C(=O)CC(C)C1)C2c1c(F)cccc1C(F)(F)F (stereo unspecified) | Dose-dependent effect | Dose-dependent effect | Dose-dependent effect | 4.6 | 21.8% | 23.8% | 59.5% |
| CC1CC(=O)C2=C(C1)NC1=C(C(=O)CC(C)C1)C2c1ccc(F)c(C(F)(F)F)c1 (stereo unspecified) | Dose-dependent effect | Dose-dependent effect | Dose-dependent effect | 4.13 | 15.5% | 22.4% | 55% |
| CC1CC(=O)C2=C(C1)NC1=C(C(=O)CC(C)C1)C2c1cccc(C(F)(F)F)c1F (stereo unspecified) | Dose-dependent effect | Dose-dependent effect | Dose-dependent effect |  |  |  |  |
| CC1CC(=O)C2=C(C1)NC1=C(C(=O)CC(C)C1)C2c1cccc(C(F)(F)F)c1Cl (stereo unspecified) | Dose-dependent effect | Dose-dependent effect | Dose-dependent effect | 4.23 | 19.8% | 29% | 63% |
| CC1CC(=O)C2=C(C1)NC1=C(C(=O)CC(C)C1)C2c1ccc(F)cc1C(F)(F)F (stereo unspecified) | Dose-dependent effect | Dose-dependent effect | Dose-dependent effect |  |  |  |  |
| CC1CC(=O)C2=C(C1)NC1=C(C(=O)CC(C)C1)C2c1cc(C(F)(F)F)ccc1F (stereo unspecified) | Dose-dependent effect | Dose-dependent effect | Dose-dependent effect |  |  |  |  |
| CC1CC(=O)C2=C(C1)NC1=C(C(=O)CC(C)C1)C2c1cc(F)cc(C(F)(F)F)c1 (stereo unspecified) | Dose-dependent effect | Dose-dependent effect | Dose-dependent effect |  |  |  |  |
| CC(N/C(=N\C#N)Nc1ccncc1)C(C)(C)C (stereo unspecified) | Dose-dependent effect | Dose-dependent effect | Dose-dependent effect | 4.71 | 18.5% | 20.8% | 69.5% |
| CC1CC(=O)C2=C(C1)NC1=C(C(=O)CC(C)C1)C2c1cc(C(F)(F)F)ccc1Cl (stereo unspecified) | Dose-dependent effect | Dose-dependent effect | Dose-dependent effect |  |  |  |  |
| CC1CC(=O)C2=C(C1)NC1=C(C(=O)CC(C)C1)C2c1c(C(F)(F)F)ccc(Cl)c1F (stereo unspecified) | Dose-dependent effect | Dose-dependent effect | Dose-dependent effect | 4.38 |  |  | 52.2% |
| CC1CC(=O)C2=C(C1)NC1=C(C(=O)CC(C)C1)C2c1ccc(C(F)(F)F)cc1F (stereo unspecified) | Dose-dependent effect | Dose-dependent effect | Dose-dependent effect | 4.12 | 27.7% | 27.2% | 57.4% |
| CC1CC(=O)C2=C(C1)NC1=C(C(=O)CC(C)C1)C2c1cc(C(F)(F)F)cc(Cl)c1F (stereo unspecified) | Dose-dependent effect | Dose-dependent effect | Dose-dependent effect |  |  |  |  |
| CC1CC(=O)C2=C(C1)NC1=C(C(=O)CC(C)C1)C2c1ccc(Cl)c(C(F)(F)F)c1 (stereo unspecified) | Dose-dependent effect | Dose-dependent effect | Dose-dependent effect |  |  |  |  |
